In one test the target is T1, 11-beta-HSD1 (Homo sapiens, UniProt P28845).
T1 construct: expressed in transfected cells; host or cells: HEK-293 cells, stably transfected; microsome preparation
The test is described as follows: Inhibitory activity of 11-beta-HSD1 in the microsomal fraction of transfected HEK293 cells (SPA, [3H]-cortisone). It counts as biochemical. Particulars: microsomes of HEK-293 cells transfected with 11-beta-HSD1. The method, then: Determination of the Inhibitory Activity of 11-Beta-HSD1 in the Microsomal Fraction of Transfected HEK293 Cells
99 μL of a reaction mixture which contained 80 nM [^3H]-cortisone, 1 mM NADPH and 40 μg/mL of the microsome preparations of HEK-293 cells stably transfected with the 11-beta-HSD1 clone, dissolved in assay buffer (50 mM HEPES, 100 mM KCl, 5 mM NaCl, 2 mM MgCl2/100 mL H2O) were added to a 96-well plate. The inhibitors to be analyzed were dissolved in 100% DMSO, and the final concentration in the reaction was 1%.
The reaction mixture was incubated for 2 hours at 37° C. under stirring. The total reaction volume per well was 100 μL. The stop solution (5 mg/mL ProteinA Spa bead, Superblock Blocking Buffer, 30 μM glycyrrhetinic acid, 1 μg/mL anticortisol monoclonal antibody) was simultaneously prepared, being incubated under stirring for two hours at rt and protected from light. Once the two hours lapsed, 50 μL of the stop solution were dispensed to each well in the reaction plate and was left to incubate for two hours at rt under stirring and protected from light. Once the second incubation ended, the plate was read in a 1450 Microbeta Tritalux (Wallac®) scintillation counter for 30 seconds per well.

The target of a further test is T2, 11-beta-HSD2 (Homo sapiens, UniProt P80365).
T2 construct: expressed in transfected cells; host or cells: HEK-293 cells, stably transfected; microsome preparation
T2 sequence (P80365 1-405): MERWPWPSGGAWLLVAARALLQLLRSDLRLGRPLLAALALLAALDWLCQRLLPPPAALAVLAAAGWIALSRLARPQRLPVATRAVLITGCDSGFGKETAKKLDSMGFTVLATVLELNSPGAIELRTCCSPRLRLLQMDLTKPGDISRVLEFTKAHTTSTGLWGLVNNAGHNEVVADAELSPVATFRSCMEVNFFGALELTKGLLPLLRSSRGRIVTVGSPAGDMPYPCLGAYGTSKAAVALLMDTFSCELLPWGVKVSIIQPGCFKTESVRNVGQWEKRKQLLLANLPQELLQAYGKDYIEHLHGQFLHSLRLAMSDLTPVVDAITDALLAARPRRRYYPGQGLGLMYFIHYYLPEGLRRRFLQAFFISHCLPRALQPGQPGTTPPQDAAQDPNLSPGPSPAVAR
Kind of test: Inhibitory activity of 11-beta-HSD2 in the microsomal fraction of transfected HEK293 cells (SPA, [3H]-cortisol). Type of test: biochemical. Particulars: for inhibition at 10 µM: microsomes of HEK-293 cells transfected with 11-beta-HSD2. Here is the method: Determination of the Inhibitory Activity of 11-Beta-HSD2 in the Microsomal Fraction of Transfected HEK293 Cells
59 μL of the reaction mixture were added to a 96-well plate. This contained 1 mM NAD^+ and 80 μg/mL of the microsome preparations of HEK-293 cells stably transfected with the 11-beta-HSD2 clone, dissolved in assay buffer (50 mM HEPES, 100 mM KCl, 5 mM NaCl, 2 mM MgCl2/100 mL H2O). The inhibitors to be analyzed were dissolved in 100% DMSO, and the final concentration in the reaction was 1%. The reaction mixture was pre-incubated for 30 minutes at 37° C. under stirring. 40 μL of the reaction substrate, 3.2 nM [^3H]-cortisol dissolved in assay buffer were added. It was incubated at 37° C. for two hours under stirring. The stop solution was simultaneously prepared, being incubated for two hours at rt and protected from light. After this time 50 μL of the stop solution were added to end the reaction, and it was incubated for two hours at rt under stirring and protected from light. The signal emitted by SPA beads-cortisol complex was measured in the 1450 Microbeta Tritalux (Wallac®) scintillation counter for 30 seconds per well. This case measures the binding to the substrate, and not to the product as in the assay for the type 1 isoenzyme.

Test [1] can be described thus: Acute glaucoma model: glucose-induced ocular hypertension in rabbit (IOP). Type of test: in vivo, Chinchilla Bastard rabbits. Particulars: for Glucose-induced Hypertension Ratio Inhibitor/Timolol: 0.5% suspension versus Timolol maleate solution 0.5%; for Glucose-induced Hypertension % Inhibition: eye instillation of 0.5% suspension 15 minutes before 5% glucose bolus 20 ml/kg. The method, then:
In Vivo Efficacy of 11beta-HSD1 Inhibitors
In vivo efficacy of 11beta-HSD1 inhibitors was evaluated in an acute glaucoma model based on a glucose-induced ocular hypertension model in rabbit.
Male Chinchilla Bastard rabbits (1.5-2.5 kg) were obtained from Charles River (Germany) and were kept under controlled environmental conditions (12-hour light/12-hour dark cycle) with food and drinking water ad libitum. Animals were treated in accordance with the ARVO Statement for the Use of Animals in Ophthalmic and Vision Research.
In order to measure intraocular pressure (IOP) according to the glucose-induced ocular hypertension model, rabbits were restrained and basal IOP was determined using a Tonolab tonometer (Tiolat Oy) at least 1 hour after initial immobilization. Acute ocular hypertension was induced by a bolus of 5% glucose solution at 20 ml/kg into the marginal ear vein and IOP was determined 5, 10, 20, 30 and 40 minutes later. Eye treatment instillation was performed 15 minutes before the hypertension induction and both eyes of each animal were instilled with the same solution, either the vehicle, the 11beta-HSD1 inhibitor suspension at 0.5% or Timolol maleate solution at 0.5% as a positive control.

The results in this text go back to patent US8822452B2, “Inhibitor compounds of 11-beta-hydroxysteroid dehydrogenase type 1” (Laboratorios Salvat, S.A., priority 2009, dated 2014).

Molecules are shown by their SMILES. Where “and” joins values, the source holds several entries; their conditions need not be identical. Equal entries are not always repeated.

T1 sequence (P28845 whole entry): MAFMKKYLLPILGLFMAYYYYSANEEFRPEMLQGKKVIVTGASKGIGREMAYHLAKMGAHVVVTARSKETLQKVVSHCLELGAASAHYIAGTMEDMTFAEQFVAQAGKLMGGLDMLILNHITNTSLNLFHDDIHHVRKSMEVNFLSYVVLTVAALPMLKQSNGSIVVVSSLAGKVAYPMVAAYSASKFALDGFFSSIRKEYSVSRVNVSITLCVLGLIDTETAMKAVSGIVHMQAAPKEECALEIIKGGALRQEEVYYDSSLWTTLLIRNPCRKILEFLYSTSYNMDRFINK

`O=C(CCCC(=O)N1CCCC2CCCCC21)NCCc1ccccc1` (centres unmarked) [Ia.59, 5-(octahydroquinolin-1-yl)-5-oxopentanoic acid phenethylamide]: the results for the inhibition at 10 µM at 11-beta-HSD1 and against 11-beta-HSD2 were 100% and 0%, respectively.
On the same counts, the results for `O=C(CCCC(=O)N1CCCC2CCCCC21)NCc1ccccc1` (centres unmarked) [Ia.61, 5-(octahydroquinolin-1-yl)-5-oxopentanoic acid benzylamide] are 93% and 0%.
On the same counts, the results for `CN(Cc1cccc2ccccc12)C(=O)CCCC(=O)N1CCCC2CCCCC21` (centres unmarked) [Ia.66, 5-(octahydroquinolin-1-yl)-5-oxopentanoic acid methylnaphthalen-1-ylmethylamide] are 100% and 6%.
For `O=C(CCCCC(=O)N1CCCC2CCCCC21)NC1C2CC3CC(C2)CC1C3` (centres unmarked) [Ia.96, 6-(octahydroquinolin-1-yl)-6-oxohexanoic acid tricyclo[3.3.1.1^3,7]decan-2-ylamide], in test [1], the “Glucose-induced Hypertension Ratio Inhibitor/Timolol” value came to 0.84 and the “Glucose-induced Hypertension % Inhibition” value is reported as 46%.
For `O=C(CCCC(=O)N1CCCC2CCCCC21)NCCc1cccc(F)c1` (centres unmarked) [Ia.198, 5-(octahydroquinolin-1-yl)-5-oxopentanoic acid N-(3-fluorophenethyl)amide] the same measures were 0.65 and 41%.
On the same counts, the results for `O=C(CCCC(=O)N1CCCC2CCCCC21)NC1CCCc2ccccc21` (centres unmarked) [Ia.224, 5-(octahydroquinolin-1-yl)-5-oxopentanoic acid N-(1,2,3,4-tetrahydronaphthalen-1-yl)amide] are 0.25 and 16%.
`CN(Cc1cccc2ccccc12)C(=O)CCCNC(=O)N1CCCC2CCCCC21` (centres unmarked) [Ib.8, Octahydroquinoline-1-carboxylic acid [3-(methylnaphthalen-1-ylmethylcarbamoyl)propyl]amide]: the inhibition at 10 µM against 11-beta-HSD1 came to 100%. Further, the “% Inhibition (10 μM) 11-beta-HSD2” value at 11-beta-HSD2 (microsomes of HEK-293 cells transfected with 11-beta-HSD2, 10 µM) was 0% and 5%.
As to `O=C(CCCNC(=O)N1CCCC2CCCCC21)N1CCC2CCCCC2C1` (centres unmarked) [Ib.18, Octahydroquinoline-1-carboxylic acid [4-(octahydroisoquinolin-2-yl)-4-oxobutyl]amide], the inhibition at 10 µM against 11-beta-HSD1 was 100%; against 11-beta-HSD2, 10%.
On the same counts, the results for `CN(Cc1cccc2ccccc12)C(=O)CCCNC(=O)N1CCC2CCCCC2C1` (centres unmarked) [Ib.80, Octahydroisoquinoline-2-carboxylic acid [3-(methylnaphthalen-1-ylmethylcarbamoyl)propyl]amide] are 100% and 13%.
For `O=C(NCCC(=O)N1CCCC2CCCCC21)c1cc2ccccc2cn1` (centres unmarked) [Id.6, Isoquinoline-3-carboxylic acid [3-(octahydroquinolin-1-yl)-3-oxopropyl]amide] the same measures were 100% and 0%.
In the case of `O=C(NCCC(=O)N1CCCC2CCCCC21)c1ccc2ccccc2n1` (centres unmarked) [Id.12, Quinoline-2-carboxylic acid[3-(octahydroquinolin-1-yl)-3-oxopropyl]amide], the inhibition at 10 µM against 11-beta-HSD1 turned out to be 100%; against 11-beta-HSD2 it was 0%. Also, the “Glucose-induced Hypertension Ratio Inhibitor/Timolol” value in test [1] amounted to 0.87. Also, the “Glucose-induced Hypertension % Inhibition” value in test [1] is 50%.
As to `O=C1c2ccccc2C(=O)N1CCCCC(=O)N1CCCC2CCCCC21` (centres unmarked) [If.1, 2-(5-(octahydroquinolin-1-yl)-5-oxopentyl)isoindoline-1,3-dione], the inhibition at 10 µM on 11-beta-HSD1 is 100%; against 11-beta-HSD2 it was 0%. In addition, the “Glucose-induced Hypertension Ratio Inhibitor/Timolol” value in test [1] came to 0.90. Also, the “Glucose-induced Hypertension % Inhibition” value in test [1] stood at 51%.
For the molecule `O=C(CCCCN1C(=O)c2ccccc2C1=O)N1CCC2CCCCC2C1` (centres unmarked) [If.8, 2-(5-(octahydroisoquinolin-2-yl)-5-oxopentyl) isoindoline-1,3-dione], the inhibition at 10 µM at 11-beta-HSD1 is 100%; against 11-beta-HSD2 it was 4%.
As for `O=C1c2ccc(F)cc2C(=O)N1CCCCC(=O)N1CCCC2CCCCC21` (centres unmarked) [Ik.25, 5-fluoro-2-[5-(octahydroquinolin-1-yl)-5-oxopentyl]isoindole-1,3-dione], the results for the inhibition at 10 µM against 11-beta-HSD1 and on 11-beta-HSD2 were 100% and 6%, respectively.

What is called inhibition is how much of the control response was suppressed. A low value points to a weak effect.
